Data on 2 compounds can be found in article PMC10879502, “Linking ATP and allosteric sites to achieve superadditive binding with bivalent EGFR kinase inhibitors” (Communications Chemistry, 2024).

Where “and” joins values, the source holds several entries; their conditions need not be identical. Equal values may be shown once. Read-outs that look alike come from different tables or passages of the source.

For assay [1], the target named is T1, EGFR L858R (LR) kinase domain (Homo sapiens, UniProt P00533, L858R).
T1 construct: The EGFR kinase domain (residues 696–1022) was cloned into pTriEx; 6xHis (N, cleaved yes); GST (N, cleaved yes); made in house; host or cells: SF9 insect cells, baculovirus
Briefly: HTRF KinEASE-TK kinase activity assay. It is filed as biochemical.

Assay [2] addresses T2, INSR (Homo sapiens, UniProt P06213).
T2 construct: purchased Eurofins DiscoverX (KINOMEscan)
Briefly: KINOMEscan. The format is binding. As to conditions: 1 μM.

Assay [3] deals with T3, ABL1(F317L)-nonphosphorylated (Homo sapiens, UniProt P00519, F317L).
T3 construct: purchased Eurofins DiscoverX Corporation
Briefly: KINOMEscan. It is filed as binding. The note with it: 1 μM.

The target of assay [4] is T4, ITK (Homo sapiens, UniProt Q08881).
T4 construct: purchased Eurofins DiscoverX (KINOMEscan)
Briefly: KINOMEscan. It is filed as binding. The note with it: 1 μM.

Assay [5] has as its target EPHA2 (Homo sapiens, UniProt P29317). Briefly: KINOMEscan. The format is binding. As to conditions: 1 μM.
Assay [6] addresses T5, CSNK2A2 (Homo sapiens, UniProt P19784).
T5 construct: purchased Eurofins DiscoverX Corporation
Briefly: KINOMEscan. The format is binding. As to conditions: 1 μM.

Assay [7] addresses PKAC-alpha (Homo sapiens, UniProt P17612). Briefly: KINOMEscan. The format is binding. The note with it: 1 μM.
The target of assay [8] is T6, MAP3K2 (Homo sapiens, UniProt Q9Y2U5).
T6 construct: purchased Eurofins DiscoverX Corporation
Briefly: KINOMEscan. It is filed as binding. As to conditions: 1 μM.

Assay [9] has as its target PRKCI (Homo sapiens, UniProt P41743). Briefly: KINOMEscan. It is filed as binding. The note with it: 1 μM.
Assay [10] concerns the target T7, GRK7 (Homo sapiens, UniProt Q8WTQ7).
T7 construct: purchased Eurofins DiscoverX Corporation
Briefly: KINOMEscan. As to conditions: 1 μM. It is filed as binding.

Assay [11] deals with STK16 (Homo sapiens, UniProt O75716). Briefly: KINOMEscan. As to conditions: 1 μM. It is filed as binding.
In assay [12] the target is T8, ABL1(F317I)-phosphorylated (Homo sapiens, UniProt P00519, F317I).
T8 construct: purchased Eurofins DiscoverX Corporation
Briefly: KINOMEscan. The note with it: 1 μM. It is filed as binding.

Assay [13] addresses T9, FRK (Homo sapiens, UniProt P42685).
T9 construct: purchased Eurofins DiscoverX Corporation
Briefly: KINOMEscan. The format is binding. As to conditions: 1 μM.

Assay [14] addresses T10, TNK1 (Homo sapiens, UniProt Q13470).
T10 construct: purchased Eurofins DiscoverX Corporation
Briefly: KINOMEscan. The format is binding. As to conditions: 1 μM.

The target in assay [15] is EPHB6 (Homo sapiens, UniProt O15197). Briefly: KINOMEscan. As to conditions: 1 μM. The format is binding.
The target of assay [16] is AURKA (Homo sapiens, UniProt O14965). Briefly: KINOMEscan. The format is binding. As to conditions: 1 μM.
The target of assay [17] is T11, LRRK2 (Homo sapiens, UniProt Q5S007).
T11 construct: purchased Eurofins DiscoverX Corporation
Briefly: KINOMEscan. The format is binding. The note with it: 1 μM.

For assay [18], the target named is T12, GCN2(Kin.Dom.2+S808G) (Homo sapiens, UniProt Q9P2K8, S808G).
T12 construct: GCN2(Kin.Dom.2+S808G); purchased Eurofins DiscoverX Corporation
Briefly: KINOMEscan. It is filed as binding. The note with it: 1 μM.

Assay [19] deals with AMPK-alpha2 (Homo sapiens, UniProt P54646). Briefly: KINOMEscan. It is filed as binding. The note with it: 1 μM.
Assay [20] concerns the target T13, CAMKK2 (Homo sapiens, UniProt Q96RR4).
T13 construct: purchased Eurofins DiscoverX Corporation (KINOMEscan)
Briefly: KINOMEscan. It is filed as binding. The note with it: 1 μM.

In assay [21] the target is PLK4 (Homo sapiens, UniProt O00444). Briefly: KINOMEscan. The format is binding. As to conditions: 1 μM.
Assay [22] has as its target RIPK1 (Homo sapiens, UniProt Q13546). Briefly: KINOMEscan. It is filed as binding. As to conditions: 1 μM.
For assay [23], the target named is T14, TAOK3 (Homo sapiens, UniProt Q9H2K8).
T14 construct: purchased Eurofins DiscoverX Corporation
Briefly: KINOMEscan. The format is binding. As to conditions: 1 μM.

The target in assay [24] is T15, JAK1(JH2domain-pseudokinase) (Homo sapiens, UniProt P23458).
T15 construct: JAK1(JH2domain-pseudokinase); purchased Eurofins DiscoverX (KINOMEscan)
Briefly: KINOMEscan. It is filed as binding. As to conditions: 1 μM.

The target of assay [25] is PRKR (Homo sapiens, UniProt P19525). Briefly: KINOMEscan. The format is binding. The note with it: 1 μM.
Assay [26] deals with T16, MLK1 (Homo sapiens, UniProt P80192).
T16 construct: purchased Eurofins DiscoverX Corporation
Briefly: KINOMEscan. The note with it: 1 μM. It is filed as binding.

The target in assay [27] is T17, ABL1-nonphosphorylated (Homo sapiens, UniProt P00519).
T17 construct: purchased Eurofins DiscoverX Corporation
Briefly: KINOMEscan. The format is binding. The note with it: 1 μM.

The target of assay [28] is PFTAIRE2 (Homo sapiens, UniProt Q96Q40). Briefly: KINOMEscan. The format is binding. As to conditions: 1 μM.
Assay [29] deals with RPS6KA5(Kin.Dom.1-N-terminal) (Homo sapiens, UniProt O75582). Briefly: KINOMEscan. It is filed as binding. The note with it: 1 μM.
The target of assay [30] is p38-alpha (Homo sapiens, UniProt Q16539). Briefly: KINOMEscan. The format is binding. As to conditions: 1 μM.
In assay [31] the target is PAK2 (Homo sapiens, UniProt Q13177). Briefly: KINOMEscan. It is filed as binding. As to conditions: 1 μM.
In assay [32] the target is PCTK1 (Homo sapiens, UniProt Q00536). Briefly: KINOMEscan. As to conditions: 1 μM. The format is binding.
In assay [33] the target is NIM1 (Homo sapiens, UniProt Q8IY84). Briefly: KINOMEscan. As to conditions: 1 μM. It is filed as binding.
Assay [34] addresses WEE2 (Homo sapiens, UniProt P0C1S8). Briefly: KINOMEscan. It is filed as binding. The note with it: 1 μM.
Assay [35] addresses p38-delta (Homo sapiens, UniProt O15264). Briefly: KINOMEscan. The format is binding. As to conditions: 1 μM.
In assay [36] the target is PAK7 (Homo sapiens, UniProt Q9P286). Briefly: KINOMEscan. It is filed as binding. The note with it: 1 μM.
In assay [37] the target is PCTK2 (Homo sapiens, UniProt Q00537). Briefly: KINOMEscan. The format is binding. As to conditions: 1 μM.
Assay [38] has as its target T18, MARK2 (Homo sapiens, UniProt Q7KZI7).
T18 construct: purchased Eurofins DiscoverX Corporation
Briefly: KINOMEscan. The format is binding. The note with it: 1 μM.

Sequence of PAK7 (Q9P286 whole entry): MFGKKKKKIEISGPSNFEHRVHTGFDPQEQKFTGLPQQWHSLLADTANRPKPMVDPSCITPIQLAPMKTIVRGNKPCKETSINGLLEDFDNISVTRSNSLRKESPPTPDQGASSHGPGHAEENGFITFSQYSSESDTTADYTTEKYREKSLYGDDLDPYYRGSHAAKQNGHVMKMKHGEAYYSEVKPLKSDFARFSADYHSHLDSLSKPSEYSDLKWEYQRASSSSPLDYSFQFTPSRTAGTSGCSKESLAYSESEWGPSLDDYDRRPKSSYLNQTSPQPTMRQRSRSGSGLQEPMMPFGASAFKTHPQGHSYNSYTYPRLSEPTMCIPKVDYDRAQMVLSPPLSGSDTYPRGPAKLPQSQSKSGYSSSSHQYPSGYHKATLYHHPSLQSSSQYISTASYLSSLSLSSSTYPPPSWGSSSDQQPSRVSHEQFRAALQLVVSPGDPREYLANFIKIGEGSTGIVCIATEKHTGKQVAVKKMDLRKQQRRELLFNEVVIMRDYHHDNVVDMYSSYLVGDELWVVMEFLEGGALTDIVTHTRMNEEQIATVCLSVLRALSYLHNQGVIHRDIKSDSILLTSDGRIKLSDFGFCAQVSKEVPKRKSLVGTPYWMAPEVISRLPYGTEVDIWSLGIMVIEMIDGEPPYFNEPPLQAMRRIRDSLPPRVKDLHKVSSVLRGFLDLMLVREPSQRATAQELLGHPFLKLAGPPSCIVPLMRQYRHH
Sequence of PFTAIRE2 (Q96Q40 whole entry): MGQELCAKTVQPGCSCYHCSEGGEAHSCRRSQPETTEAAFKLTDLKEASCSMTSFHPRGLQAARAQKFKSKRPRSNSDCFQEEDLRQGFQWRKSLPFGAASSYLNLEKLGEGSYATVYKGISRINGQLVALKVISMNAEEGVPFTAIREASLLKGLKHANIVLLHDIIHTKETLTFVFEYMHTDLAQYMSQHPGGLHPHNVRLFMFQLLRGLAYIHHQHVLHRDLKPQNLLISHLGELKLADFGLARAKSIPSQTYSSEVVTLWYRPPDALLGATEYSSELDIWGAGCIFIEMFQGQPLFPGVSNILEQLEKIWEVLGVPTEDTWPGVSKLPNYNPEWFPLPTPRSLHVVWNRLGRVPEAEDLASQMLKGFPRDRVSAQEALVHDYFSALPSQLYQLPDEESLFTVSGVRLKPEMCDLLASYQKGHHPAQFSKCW
T5 sequence (P19784 whole entry): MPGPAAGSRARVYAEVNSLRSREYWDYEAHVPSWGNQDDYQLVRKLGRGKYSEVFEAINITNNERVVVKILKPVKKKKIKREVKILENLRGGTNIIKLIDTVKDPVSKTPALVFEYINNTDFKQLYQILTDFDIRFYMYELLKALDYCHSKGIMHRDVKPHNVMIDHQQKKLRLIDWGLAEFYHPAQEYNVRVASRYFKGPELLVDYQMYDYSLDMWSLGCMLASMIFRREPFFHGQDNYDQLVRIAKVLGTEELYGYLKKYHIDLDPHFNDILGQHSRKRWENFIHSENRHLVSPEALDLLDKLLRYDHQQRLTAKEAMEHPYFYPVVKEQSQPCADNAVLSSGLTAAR
Sequence of PCTK1 (Q00536 whole entry): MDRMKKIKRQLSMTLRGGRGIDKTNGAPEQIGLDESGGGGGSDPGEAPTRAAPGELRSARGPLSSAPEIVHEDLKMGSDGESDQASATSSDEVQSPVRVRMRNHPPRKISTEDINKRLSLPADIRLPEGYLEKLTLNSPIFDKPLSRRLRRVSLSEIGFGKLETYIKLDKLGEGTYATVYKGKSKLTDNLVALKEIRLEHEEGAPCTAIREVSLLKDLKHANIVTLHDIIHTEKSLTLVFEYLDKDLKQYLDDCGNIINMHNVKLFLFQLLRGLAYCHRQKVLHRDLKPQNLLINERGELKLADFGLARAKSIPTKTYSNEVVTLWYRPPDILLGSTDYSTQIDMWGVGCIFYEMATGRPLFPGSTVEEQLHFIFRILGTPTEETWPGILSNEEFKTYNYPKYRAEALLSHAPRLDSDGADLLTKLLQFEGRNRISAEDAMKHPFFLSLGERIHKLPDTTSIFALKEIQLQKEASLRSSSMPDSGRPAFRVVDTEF
T6 sequence (Q9Y2U5 whole entry): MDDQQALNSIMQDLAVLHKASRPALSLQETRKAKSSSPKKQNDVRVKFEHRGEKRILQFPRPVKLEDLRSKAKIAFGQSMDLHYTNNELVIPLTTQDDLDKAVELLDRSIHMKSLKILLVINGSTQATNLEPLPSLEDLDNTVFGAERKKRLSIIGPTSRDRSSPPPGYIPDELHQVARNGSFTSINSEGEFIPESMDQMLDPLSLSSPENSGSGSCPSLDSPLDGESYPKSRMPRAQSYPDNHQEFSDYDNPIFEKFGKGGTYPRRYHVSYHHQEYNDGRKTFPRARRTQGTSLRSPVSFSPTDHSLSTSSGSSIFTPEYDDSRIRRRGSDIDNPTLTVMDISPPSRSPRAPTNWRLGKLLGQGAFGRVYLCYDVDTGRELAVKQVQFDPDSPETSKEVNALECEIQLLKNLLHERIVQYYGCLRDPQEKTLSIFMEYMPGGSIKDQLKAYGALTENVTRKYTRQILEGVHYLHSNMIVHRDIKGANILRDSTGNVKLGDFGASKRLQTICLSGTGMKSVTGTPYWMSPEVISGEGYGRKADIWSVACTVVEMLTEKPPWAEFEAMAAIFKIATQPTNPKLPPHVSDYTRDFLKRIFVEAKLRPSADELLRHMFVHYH
Sequence of p38-alpha (Q16539 whole entry): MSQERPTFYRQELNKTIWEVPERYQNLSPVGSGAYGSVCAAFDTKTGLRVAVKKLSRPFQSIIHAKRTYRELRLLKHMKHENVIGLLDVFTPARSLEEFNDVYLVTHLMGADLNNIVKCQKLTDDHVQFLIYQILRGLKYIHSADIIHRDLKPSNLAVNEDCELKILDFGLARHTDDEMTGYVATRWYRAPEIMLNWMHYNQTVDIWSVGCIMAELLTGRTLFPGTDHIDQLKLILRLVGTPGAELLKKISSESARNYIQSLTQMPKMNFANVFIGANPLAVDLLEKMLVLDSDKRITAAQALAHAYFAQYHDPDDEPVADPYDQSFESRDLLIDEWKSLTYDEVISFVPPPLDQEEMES
T7 sequence (Q8WTQ7 whole entry): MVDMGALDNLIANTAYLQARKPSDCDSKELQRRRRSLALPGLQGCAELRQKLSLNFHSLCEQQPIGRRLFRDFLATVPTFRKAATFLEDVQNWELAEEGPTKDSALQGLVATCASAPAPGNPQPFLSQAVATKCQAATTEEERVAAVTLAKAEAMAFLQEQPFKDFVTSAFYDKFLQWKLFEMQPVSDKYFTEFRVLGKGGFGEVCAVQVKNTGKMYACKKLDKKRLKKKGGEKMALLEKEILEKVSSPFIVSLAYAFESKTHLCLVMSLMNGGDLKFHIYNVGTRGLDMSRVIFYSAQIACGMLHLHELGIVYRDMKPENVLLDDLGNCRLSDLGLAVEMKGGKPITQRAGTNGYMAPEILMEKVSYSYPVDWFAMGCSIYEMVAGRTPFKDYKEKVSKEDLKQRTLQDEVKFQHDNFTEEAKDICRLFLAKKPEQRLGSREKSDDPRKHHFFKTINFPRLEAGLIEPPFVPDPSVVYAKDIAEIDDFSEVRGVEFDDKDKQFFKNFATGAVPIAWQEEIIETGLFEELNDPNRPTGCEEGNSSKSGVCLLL
T10 sequence (Q13470 whole entry): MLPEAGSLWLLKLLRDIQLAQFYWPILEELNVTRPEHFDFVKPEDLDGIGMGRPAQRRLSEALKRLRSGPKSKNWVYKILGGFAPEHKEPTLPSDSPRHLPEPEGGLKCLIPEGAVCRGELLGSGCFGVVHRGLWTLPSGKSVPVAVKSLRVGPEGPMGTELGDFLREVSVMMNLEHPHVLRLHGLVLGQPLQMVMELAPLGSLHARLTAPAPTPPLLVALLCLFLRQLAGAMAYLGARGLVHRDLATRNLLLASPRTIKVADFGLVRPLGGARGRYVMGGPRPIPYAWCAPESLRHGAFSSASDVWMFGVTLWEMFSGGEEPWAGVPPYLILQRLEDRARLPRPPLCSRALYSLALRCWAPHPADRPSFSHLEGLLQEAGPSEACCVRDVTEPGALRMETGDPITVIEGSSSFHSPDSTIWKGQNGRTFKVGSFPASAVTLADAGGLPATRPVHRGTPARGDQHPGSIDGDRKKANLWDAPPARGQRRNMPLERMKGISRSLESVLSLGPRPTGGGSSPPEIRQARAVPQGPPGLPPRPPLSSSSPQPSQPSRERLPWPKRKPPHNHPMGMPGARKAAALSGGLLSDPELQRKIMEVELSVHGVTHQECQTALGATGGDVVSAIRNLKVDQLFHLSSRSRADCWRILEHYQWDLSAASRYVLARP
T18 sequence (Q7KZI7 whole entry): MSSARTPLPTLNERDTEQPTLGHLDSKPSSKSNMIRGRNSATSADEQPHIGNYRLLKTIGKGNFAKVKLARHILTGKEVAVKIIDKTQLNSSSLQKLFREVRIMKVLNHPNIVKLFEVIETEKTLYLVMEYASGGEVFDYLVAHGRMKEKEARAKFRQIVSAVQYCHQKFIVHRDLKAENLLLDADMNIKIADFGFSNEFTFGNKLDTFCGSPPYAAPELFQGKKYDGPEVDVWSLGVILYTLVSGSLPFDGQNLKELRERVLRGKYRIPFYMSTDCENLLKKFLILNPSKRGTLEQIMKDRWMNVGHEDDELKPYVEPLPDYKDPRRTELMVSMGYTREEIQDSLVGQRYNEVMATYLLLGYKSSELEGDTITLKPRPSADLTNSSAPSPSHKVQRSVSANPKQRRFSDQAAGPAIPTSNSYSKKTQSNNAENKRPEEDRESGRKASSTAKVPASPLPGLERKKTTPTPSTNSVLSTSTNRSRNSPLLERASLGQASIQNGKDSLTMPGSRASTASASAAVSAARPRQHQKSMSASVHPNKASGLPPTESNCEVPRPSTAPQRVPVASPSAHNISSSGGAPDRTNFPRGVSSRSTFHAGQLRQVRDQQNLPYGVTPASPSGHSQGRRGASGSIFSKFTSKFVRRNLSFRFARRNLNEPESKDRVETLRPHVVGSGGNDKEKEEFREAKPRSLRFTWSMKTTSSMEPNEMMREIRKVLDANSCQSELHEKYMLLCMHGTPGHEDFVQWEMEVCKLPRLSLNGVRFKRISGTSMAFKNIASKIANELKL

One may read the IC50 as the point on the concentration scale where inhibition reaches its midpoint. Consider `CSc1nc(-c2cccc(NC(=O)c3cccc4c3NC(=O)c3ccccc3N4)c2)c(-c2ccnc(NC(C)=O)c2)[nH]1` [Compound 2], for which the activity in [1] (LR, [Inhibitor] 1.3e-5 nM, read-out: percent inhibition) is 93.5% and 92.2% and 100%; in [1] (LR, [Inhibitor] 3.18e-5 nM, read-out: percent inhibition), 90.3% (2×) and 95.9%; in [1] (LR, [Inhibitor] 7.78e-5 nM, read-out: percent inhibition), 71% and 67.2% and 70.8%. Besides, the activity at 190.4 fM in assay [1] (LR, [Inhibitor] 0.000190441 nM, read-out: percent inhibition) was 39.1%. For the same compound, the activity at 466 fM in assay [1] (LR, [Inhibitor] 0.000465979 nM, read-out: percent inhibition) stood at 22.7%. Besides, the activity at 1.14 pM in assay [1] (LR, [Inhibitor] 0.00114018 nM, read-out: percent inhibition) is 13.5%. For the same compound, the activity at 2.79 pM in assay [1] (LR, [Inhibitor] 0.00278983 nM, read-out: percent inhibition) was determined as 8.55%. The activity at 6.826 pM in assay [1] (LR, [Inhibitor] 0.00682626 nM, read-out: percent inhibition) came to 4.28%. Besides, in [1] (LR, [Inhibitor] 0.0167028 nM, read-out: percent inhibition), the activity at 16.7 pM was determined as 1.88%. The IC50 in assay [1] (enzyme 0.1 nM, ATP 100 µM, read-out: Biochemical EGFR IC50, LR) was found to be 1.5 ± 0.1 nM.
In the case of `C=CC(=O)Nc1ccc(OC)c(Nc2cc(-c3[nH]c(CC)nc3-c3cccc(NC(=O)c4cccc5c4NC(=O)c4ccccc4N5)c3)ccn2)c1` [Compound 4], the POC in [2] is 97% of control; in assay [3], 37% of control; in [4], 87% of control; in assay [5], 100% of control; in [6], 58% of control; in [7] it was 100% of control. In addition, the POC in assay [8] is reported as 100% of control; in [9], 100% of control; in [10] it was 99% of control; in assay [11] it was 100% of control; in assay [12], 84% of control; in [13], 20% of control. In addition, the POC in assay [14] is given as 22% of control; in [15] it was 100% of control; in [16], 90% of control; in assay [17], 93% of control; in assay [18], 100% of control; in assay [19], 56% of control. In addition, the POC is recorded as 95% of control in assay [20]; 71% of control in [21]; 100% of control in assay [22]; 95% of control in assay [23]; 83% of control in assay [24]; 87% of control in [25]. Moreover, the POC in [26] is 86% of control; in assay [27], 100% of control; in assay [28], 84% of control; in assay [29], 83% of control; in [30], 46% of control; in assay [31], 100% of control. For the same compound, the POC in [32] is 100% of control; in assay [33], 78% of control; in assay [34] it was 98% of control; in [35], 100% of control; in assay [36], 77% of control; in assay [37], 100% of control. Besides, the POC in [38] is on record as 85% of control.
